Measurements: patent US20110006261A1, “USE OF AN OZONE/OXYGEN MIXTURE AS PRIMARY ANTICANCER THERAPY THROUGH INTRAPERITONEAL INSUFFLATION” (priority 2007, published 2011)
“And” between values parts separate entries of the source, which are not always exact repeats. Identical values can stand only once.

Legend:
[1] = tested on: auricular VX2 carcinoma; assay: Therapy of auricular VX2 carcinoma in rabbits by intraperitoneal gas insufflation (survival, tumor clearance); format: in vivo, New Zealand White (NZW) rabbit
[2] = Adverse effects: intraabdominal pressure, body weight, clinical signs
[3] = inhaled, mice; cited from earlier work

O=O [O2, pure medical oxygen]
day of tumor clearance ([1]; day after tumor cell inoculation): 68 days and 85 days | mean survival time ([1]; observation period 90 days after tumor cell inoculation): 51 days | number of rabbits with tumor remission ([1]; until day 90): two | maximal drop of mean body weight ([2]; compared to mean body weight on day 14): 5.0%

medical ozone/oxygen (O3/O2) gas mixture
severe side effects (sustained body weight reduction, gas embolism, fever, diarrhea, peritonitis) ([2]; rabbit, in vivo): no severe side effects

O=[O+][O-] [ozone]
adverse effect grade (weight loss) [3]: grade II | weight loss [3]: up to 14%
